Consider 28 molecules from patent publication US6787541B1, “Thieno-and furopyrimidine derivatives as A2A-receptor antagonists” (Vernalis Research Limited, priority 1999, dated 2004).

Bounds are passed on as bounds.

In general, Ki refers to the equilibrium dissociation constant of an inhibitor or competing ligand from its target. Read a high Ki as lower affinity. As usually defined, the melting point is the temperature, or range, at which the solid turns liquid.

For data set [1], the target named is T1, human adenosine A2A receptors expressed in HEK-293 cells (Homo sapiens, UniProt P29274).
T1 construct: expressed in transfected cells; host or cells: HEK-293 cells
Nature of the data set: Binding affinities at hA2A receptors, displacement of [3H]-CGS 21680. A general note: In a radioligand displacement assay an active substance lowers the binding of a labelled ligand.

T1 sequence (P29274 whole entry): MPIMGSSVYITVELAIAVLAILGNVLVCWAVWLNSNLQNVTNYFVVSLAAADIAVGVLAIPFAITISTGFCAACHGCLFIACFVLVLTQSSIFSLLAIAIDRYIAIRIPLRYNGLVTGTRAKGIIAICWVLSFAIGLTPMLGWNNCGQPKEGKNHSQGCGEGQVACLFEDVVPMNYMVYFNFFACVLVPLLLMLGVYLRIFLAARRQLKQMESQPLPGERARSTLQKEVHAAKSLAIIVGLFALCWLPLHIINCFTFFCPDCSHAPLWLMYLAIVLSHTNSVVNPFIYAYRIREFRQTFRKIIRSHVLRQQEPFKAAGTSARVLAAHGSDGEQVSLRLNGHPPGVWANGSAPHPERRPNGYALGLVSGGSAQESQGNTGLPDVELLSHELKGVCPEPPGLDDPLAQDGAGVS

With `O=C(c1cccs1)c1nc(Cl)nc2ccsc12` [Example 44, 2-Chlorothieno[3,2-d]pyrimidin-4-yl 2-thienylmethanone], the melting point lay within 190.5 to 191 °C. Further, in data set [1], the inhibitory constant (Ki) stood at 91 nM.
For `CN(C)c1nc(C(=O)c2ccccc2)c2sccc2n1` [Example 40, 2-Dimethylaminothieno[3,2-d]pyrimidin-4-yl phenylmethanone] the same measures were 116.5 to 117 °C and 295 nM.
For `O=C(c1ccccc1)c1nc(Cl)nc2ccsc12` [Example 28, 2-Chlorothieno[3,2-d]pyrimidin-4-yl phenylmethanone] the same measures were 162.2 to 163.1 °C and 865 nM.
For `O=C(c1ccccc1)c1nc(NCCO)nc2ccsc12` [Example 72, 2-(2-Hydroxyethylamino)thieno[3,2-d]pyrimidin-4-yl phenylmethanone] the same measures were 114.1 to 114.9 °C and 126 nM.
As for `Cc1ccsc1C(=O)c1nc(C(F)(F)F)nc2ccsc12` [Example 42, 3-Methyl-2-thienyl 2-trifluoromethylthieno[3,2-d]pyrimidin-4-ylmethanone], the melting point lay within 201 to 202 °C. The inhibitory constant (Ki) in data set [1] was found to be 26 nM.
For `CC(C)Nc1nc(C(=O)c2cccs2)c2sccc2n1` [Example 61, 2-Isopropylaminothieno[3,2-d]pyrimidin-4-yl 2-thienylmethanone] the same measures were 134.8 to 135.6 °C and 21 nM.
For `Cc1cc(C(=O)c2nc(C(F)(F)F)nc3ccsc23)oc1C` [Example 74, 4,5-Dimethyl-2-furyl 2-trifluoromethylthieno[3,2-d]pyrimidin-4-ylmethanone] the same measures were 185 to 186 °C and 90 nM.
The corresponding values for `Cc1ccccc1C(=O)c1nc(C(F)(F)F)nc2ccsc12` [Example 11, 2-Methylphenyl 2-trifluoromethylthieno[3,2-d]pyrimidin-4-ylmethanone] are 116 to 118 °C and 330 nM.
`O=C(c1ccccc1Cl)c1nc(C(F)(F)F)nc2ccsc12` [Example 8, 2-Chlorophenyl 2-trifluoromethylthieno[3,2-d]pyrimidin-4-ylmethanone] displayed a melting point of 122 to 123 °C. The molecule further registered a Ki in data set [1] of 586 nM.
The corresponding values for `CCc1nc(C(C#N)c2ccccn2)c2sccc2n1` (stereo not drawn) [Example 34, 2-Ethyl-α-(2-pyridyl)thieno[3,2-d]pyrimidine-4-acetonitrile] are 240 to 242 °C and 245 nM.
In turn, `CCOC(=O)CCCNc1nc(C(=O)c2cccs2)c2sccc2n1` [Example 76, Ethyl 4-(4-(2-thienylcarbonyl)thieno[3,2-d]pyrimidin-2-ylamino)butanoate] yielded a melting point of 143.3 to 143.7 °C. The molecule also displayed an inhibition constant (Ki) in data set [1] of 8 nM.
For `CC(C)(C)OC(=O)NCCNc1nc(C(=O)c2cccs2)c2sccc2n1` [Example 54, Tert-butyl (2-(4-(2-thienylcarbonyl)thieno[3,2-d]pyrimidin-2-yl)aminoethyl)carbamate] the same measures were 199.9 to 200.7 °C and 36 nM.
The corresponding values for `COCCNc1nc(C(=O)c2cccs2)c2sccc2n1` [Example 65, 2-(2-Methoxyethylamino)thieno[3,2-d]pyrimidin-4-yl 2-thienylmethanone] are 135.6 to 135.9 °C and 21 nM.
The corresponding values for `CCCc1nc(C(=O)c2cccs2)c2sccc2n1` [Example 63, 2-n-Propylthieno[3,2-d]pyrimidin-4-yl 2-thienylmethanone] are 122 to 125 °C and 37 nM.
For `CCOc1nc(C(=O)c2cccs2)c2sccc2n1` [Example 73, 2-Ethoxythieno[3,2-d]pyrimidin-4-yl 2-thienylmethanone], the melting point lay in the range of 164.6 to 165.4 °C. The same molecule came in with an inhibition constant Ki in data set [1] of 48 nM.
For `CSc1nc(C(=O)c2cccs2)c2scc(C)c2n1` [Example 39, 7-Methyl-2-methylthiothieno[3,2-d]pyrimidin-4-yl 2-thienylmethanone], the melting point was 144 to 166 °C. This molecule also displayed an inhibition constant (Ki) in data set [1] of 575 nM.
The corresponding values for `C=CCNc1nc(C(=O)c2cccs2)c2sccc2n1` [Example 59, 2-Allylaminothieno[3,2-d]pyrimidin-4-yl 2-thienylmethanone] are 142.1 to 142.9 °C and 18 nM.
For `O=C(c1cc(Br)cs1)c1nc(C(F)(F)F)nc2ccsc12` [Example 57, 4-Bromo-2-thienyl 2-trifluoromethylthieno[3,2-d]pyrimidin-4-ylmethanone] the same measures were 178 to 179 °C and 800 nM.
For `CN(C)c1ccc(C(=O)c2nc(C(F)(F)F)nc3ccsc23)s1` [Example 56, 5-Dimethylamino-2-thienyl 2-trifluoromethylthieno[3,2-d]pyrimidin-4-ylmethanone] the same measures were 188 to 191 °C and 309 nM.
In turn, `COc1nc(C(=O)c2cccs2)c2scc(C)c2n1` [Example 37, 2-Methoxy-7-methylthieno[3,2-d]pyrimidin-4-yl 2-thienylmethanone] came in with a melting point of 144 to 146 °C. Besides, in data set [1], the inhibition constant (Ki) amounted to 361 nM.
For `O=C(c1cccs1)c1nc(NCCN2CCOCC2)nc2ccsc12` [Example 78, 2-(2-(4-Morpholinyl)ethylamino)thieno[3,2-d]pyrimidin-4-yl 2-thienylmethanone], the melting point was > 120 °C (dec.). The same molecule yielded a Ki in data set [1] of 46 nM.
The corresponding values for `Cc1nc(C(C#N)c2ccccn2)c2sccc2n1` (stereo not drawn) [Example 64, 2-Methyl-α-(2-pyridyl)thieno[3,2-d]pyrimidine-4-acetonitrile] are 266 to 269 °C and 529 nM.
For `O=C(c1cccs1)c1nc(N2CCOCC2)nc2ccsc12` [Example 77, 2-(4-Morpholinyl)thieno[3,2-d]pyrimidin-4-yl 2-thienylmethanone] the same measures were 199.9 to 200.5 °C and 97 nM.
The corresponding values for `Cc1ccsc1C(=O)c1nc(NCCO)nc2ccsc12` [Example 118, 2-(2-Hydroxyethylamino)thieno[3,2-d]pyrimidin-4-yl 3-methyl-2-thienylmethanone] are 194.5 to 195 °C and 7 nM.
Consider `O=C(c1ccc(Cl)s1)c1nc(C(F)(F)F)nc2ccsc12` [Example 12, 5-Chloro-2-thienyl 2-trifluoromethylthieno[3,2-d]pyrimidin-4-ylmethanone], for which the melting point was in the range of 165 to 167 °C. In addition, in data set [1], the inhibition constant (Ki) is 31 nM.
`CCCc1nc(C(C#N)c2ccccn2)c2sccc2n1` (stereo not drawn) [Example 60, 2-n-Propyl-α-(2-pyridyl)thieno[3,2-d]pyrmidine-4-acetonitrile] showed a melting point of 185 to 187 °C. The inhibitory constant (Ki) in data set [1] was 237 nM.
The corresponding values for `Cc1ccc(C(=O)c2nc(C(F)(F)F)nc3ccsc23)cc1` [Example 29, 4-Methylphenyl 2-trifluoromethylthieno[3,2-d]pyrimidin-4-ylmethanone] are 127 to 129 °C and 539 nM.
For `COc1ccc(C(=O)c2nc(C(F)(F)F)nc3ccsc23)s1` [Example 68, 5-Methoxy-2-thienyl 2-trifluoromethylthieno[3,2-d]pyrimidin-4-ylmethanone] the same measures were 160 to 162 °C and 105 nM.
